Blank lines part the entries; values can stand above or below the molecule they belong to. No end group written: not given here. *: point of attachment. Biotin = O=C1N[C@H]2[C@H](CS[C@H]2CCCCC(=O)*)N1
Key:
PPARα-LBD [1] = target: T1, PPARα-LBD (Homo sapiens, UniProt Q07869); assay: Thermal stability assay using circular dichroism spectroscopy; format: binding; parameters: Human PPARα-LBD (amino acids 200–468); His tag (pET28a) (N); made in house; host or cells: Rosetta (DE3) pLysS (E. coli); settings: CD at 222 nm; 10 µM LBD; GW7647 at 10 µM
T1 sequence (Q07869 200-468): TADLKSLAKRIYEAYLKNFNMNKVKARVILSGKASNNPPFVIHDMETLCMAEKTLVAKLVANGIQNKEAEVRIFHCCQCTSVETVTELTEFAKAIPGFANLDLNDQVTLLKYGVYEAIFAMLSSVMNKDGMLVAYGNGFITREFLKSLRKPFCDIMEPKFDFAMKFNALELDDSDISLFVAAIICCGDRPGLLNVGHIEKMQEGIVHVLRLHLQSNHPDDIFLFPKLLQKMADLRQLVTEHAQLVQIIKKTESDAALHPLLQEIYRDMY
Procedure: (§1) PPARα/δ/γ-LBD proteins (10 µM) were incubated with different concentrations of ligands in buffer C consisting of 20 mM Tris-HCl (pH 8.0), 150 mM NaCl, 1 mM Tris 2-carboxyethylphosphine (TCEP)-HCl, and 10% glycerol. The circular dichroism (CD) spectra were monitored within a 200–260 nm range at increasing temperatures from 30 °C to 70 °C (2 °C/min) using a J-1500 spectropolarimeter equipped with a PTC-510 thermal controller (JASCO, Tokyo, Japan). […] The ligand-induced increases in the Tm values were defined as ∆Tm.
(§2) Nuclear receptors, including PPARs, display an increased thermal stability upon ligand binding, which is detectable through CD spectroscopy.
(§3) Figure 3 Circular dichroism-based PPARα/δ/γ-LBD thermal stability assay. […] Data are presented as the mean ± SE of three or four (in parentheses) independent experiments. Differences vs. basal levels (with 0.1% DMSO) were statistically assessed by one-way ANOVA, followed by a Dunnett’s post hoc test: * p < 0.05, ** p < 0.01, and *** p < 0.001.

PPARα-LBD [2] = target: T1, PPARα-LBD; parameters: Human PPARα-LBD (amino acids 200–468); made in house; host or cells: Rosetta (DE3) pLysS (E. coli); method as in PMID 33205029; settings: read-out: EC50 in the PGC1α recruitment activity (PPARα); cited from earlier work
human PPARα = target: T2, human PPARα (Homo sapiens, UniProt Q07869); assay: Transactivation assay (GAL4–hPPARα-LBD chimera, luciferase reporter, COS-7 cells); format: cell-based; settings: 100% = 1 µM GW7647, read-out: Efficacy, PPARα transactivation (% of the maximal response)
T2 construct: expressed in transfected cells; host or cells: COS-7
T2 sequence (Q07869 239-466 limits assumed): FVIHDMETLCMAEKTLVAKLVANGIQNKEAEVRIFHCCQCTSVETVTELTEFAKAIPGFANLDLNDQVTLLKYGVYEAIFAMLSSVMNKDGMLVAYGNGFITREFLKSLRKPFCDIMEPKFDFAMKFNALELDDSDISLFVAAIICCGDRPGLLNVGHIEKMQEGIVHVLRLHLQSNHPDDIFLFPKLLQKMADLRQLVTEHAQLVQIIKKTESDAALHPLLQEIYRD
Procedure: (§4) The pSG5-GAL–hPPARα/δ/γ plasmids express fusion proteins comprising the yeast transcription factor GAL4 DNA-binding domain and each of the human PPARα/δ/γ-LBDs. The MH100(UAS)×4-tk-Luc plasmid contains four copies of the MH100 GAL4 binding site and the Firefly luciferase gene. The cells were transfected with those plasmids and were treated with various PPAR ligands, and both Firefly and Renilla luciferase activities were measured using the Dual-Glo Luciferase Assay System (Promega, Madison, WI, USA) as described previously. […] GW1929 was purchased from Sigma-Aldrich (St. Louis, MO, USA).
(§5) For the undertaking of the comparison of the potency, efficacy, and selectivity of the five PPAR ligands (Figure 1A) against the PPAR subtypes, we evaluated their PPARα/δ/γ activation using three different methods: a cell-based transactivation assay, a coactivator recruitment assay, and a thermal stability assay, as we previously performed on three fibrates (namely, bezafibrate, fenofibric acid, and pemafibrate). The cell-based transactivation assay utilizing the Gal4–PPAR-LBD system is the most widely used method for the determination of PPAR activation by certain ligands, although their responses depend on the used cell types in which several coactivators with altered functions are differentially expressed.
(§6) Figure 1 LBD-mediated human PPARα/δ/γ transactivation by PPAR ligands. (A) Chemical structures of the five PPAR ligands used in this study. […] Data are presented as the mean ± standard error (SE) of three independent experiments with duplicate samples.

human PPARδ = target: T3, human PPARδ (Homo sapiens, UniProt Q03181); assay: Transactivation assay (GAL4–hPPARδ-LBD chimera, luciferase reporter, COS-7 cells); format: cell-based; settings: COS-7, read-out: Efficacy, PPARδ transactivation (% of the maximal response)
T3 construct: expressed in transfected cells; host or cells: COS-7
T3 sequence (Q03181 211-439 limits assumed): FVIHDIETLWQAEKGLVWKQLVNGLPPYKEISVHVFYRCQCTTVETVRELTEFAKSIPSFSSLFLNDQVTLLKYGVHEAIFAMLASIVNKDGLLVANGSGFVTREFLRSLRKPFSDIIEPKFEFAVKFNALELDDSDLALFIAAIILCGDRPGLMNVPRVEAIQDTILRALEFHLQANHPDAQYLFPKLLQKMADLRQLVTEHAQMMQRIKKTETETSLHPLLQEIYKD
Procedure: as §4, §5, §6

PPARδ-LBD = target: T4, PPARδ-LBD (Homo sapiens, UniProt Q03181); assay: Thermal stability assay using circular dichroism spectroscopy; format: binding; parameters: PPARδ-LBD (amino acids 170–441); His tag (pET28a) (N); made in house; host or cells: Rosetta (DE3) pLysS (E. coli); settings: CD at 222 nm; 10 µM LBD; GW501516 at 50 µM
T4 sequence (Q03181 170-441): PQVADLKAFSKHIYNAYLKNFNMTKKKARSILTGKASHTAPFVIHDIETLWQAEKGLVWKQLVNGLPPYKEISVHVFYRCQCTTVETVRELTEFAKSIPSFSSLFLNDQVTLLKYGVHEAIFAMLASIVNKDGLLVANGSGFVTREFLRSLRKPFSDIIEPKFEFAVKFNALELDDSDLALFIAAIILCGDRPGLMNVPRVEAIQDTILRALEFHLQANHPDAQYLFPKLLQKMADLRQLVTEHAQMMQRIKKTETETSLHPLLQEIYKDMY
Procedure: as §1, §2, §3

PPARγ-LBD = target: T5, PPARγ-LBD (Homo sapiens, UniProt P37231); assay: as above; format: binding; parameters: PPARγ-LBD (amino acids 203–477 in isoform 1); His tag (pET28a) (N); made in house; host or cells: Rosetta (DE3) pLysS (E. coli); settings: CD at 222 nm; 10 µM LBD; GW1929 at 10 µM
T5 sequence (P37231 203-477 isoform P37231-2): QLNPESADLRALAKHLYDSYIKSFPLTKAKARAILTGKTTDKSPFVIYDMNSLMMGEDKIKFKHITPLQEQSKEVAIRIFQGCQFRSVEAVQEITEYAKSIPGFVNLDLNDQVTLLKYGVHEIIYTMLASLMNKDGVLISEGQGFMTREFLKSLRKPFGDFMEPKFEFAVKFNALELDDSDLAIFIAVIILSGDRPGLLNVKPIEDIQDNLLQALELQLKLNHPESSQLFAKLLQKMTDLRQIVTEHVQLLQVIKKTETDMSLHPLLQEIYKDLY
Procedure: as §1, §2, §3

[3] = target: T6, Human PPARα-LBD (amino acids 200–468), amino-terminal His-tagged (human, UniProt Q07869 200-468); assay: FRET or BRET; LANCE Ultra TR-FRET; His-tagged LBD (400 nM solution, 9.5 µL) + biotin-PGC1α (4 µM, 5 µL) or biotin-SRC1 peptide (8 µM, 5 µL), Eu-W1024 anti-6×His antibody / ULight-Streptavidin, 2 h, room temperature; buffer A (10 mM HEPES-NaOH pH 7.4, 150 mM NaCl, 0.005% Tween 20, 0.1% BSA) for PPARα/γ-LBD, buffer B (50 mM HEPES-NaOH pH 7.4, 50 mM KCl, 1 mM EDTA, 0.5 mM DTT, 0.1% BSA) for PPARδ-LBD; ligand: reference …; settings: both partners purified
T6 construct: The His tag is detected by the anti-6xHis antibody in the TR-FRET assay; A delipidized preparation was used for some PPARα crystals; also called hPPARα-LBD; not shown: His tag, N-terminal, kept
T6 sequence (looked up): T1 sequence (Q07869 200-468)

Effect on Tm of PPARα-LBD (in words) (PPARα-LBD [1]): highly increased Tm values
Molecule: CC(C)(Sc1ccc(CCN(CCCCC2CCCCC2)C(=O)NC2CCCCC2)cc1)C(=O)O [GW7647]

Molecule: CC(C)(Oc1ccc(Cl)cc1)C(=O)O [clofibric acid]
EC50 (PPARα-LBD [2]): 574 µM

Molecule: CCc1ccc(CCOc2ccc(CC3SC(=O)NC3=O)cc2)nc1 (centres unmarked) [pioglitazone]
Emax (human PPARα): 25.2%
Emax (human PPARδ): 0.518%
Effect on Tm of PPARδ-LBD (in words) (PPARδ-LBD): no effects
Effect on Tm of PPARα-LBD (in words) (PPARα-LBD [1]): no effects

Effect on Tm of PPARγ-LBD (in words) (PPARγ-LBD): highly increased Tm values
Molecule: GW1929

binding result [3]: binds
B1: biotin-labeled PPARγ coactivator 1α (PGC1α) coactivator peptide (amino acids 137–155) (peptide)
peptide: Biotin-EAEEPSLLKKLLLAPANTQ
notes: also called biotin-PGC1α; source: synthetic peptide (GenScript)

— publication PMC10451623 (Antioxidants, 2023)
